Reference: patent US20250129045A1, “SMALL MOLECULE PIM AND MTOR KINASE INHIBITOR AND METHODS OF USE THEREOF” (Arizona Board of Regents on Behalf of the University of …, priority 2022, published 2025)
“Also recorded” adds a separate entry of the source.

What was measured:
[1] = test system: PANC1 pancreatic cancer cells; assay: Growth inhibition of PANC1 pancreatic cancer cells; format: cell-based
Description: (§1) Cell growth assay: Tumor cells were seeded into 48 well plates (1000 cells/well) and treated with varied agents. The Incucyte real-time imaging system (Incucyte) was used to measure cell proliferation using a non-label cell monolayer confluence approach. The images were captured every 12 h. Graphs were generated using an integrated confluence metric as an alternative for cell numbers. At the end of the study cell growth was visualized by crystal violet staining.
(§2) Because of ease of growth, PANC1 pancreatic cancer cells were used to test the activity of derivatives of VBT-5445 (FIG. 14). […] Using a doxycycline inducible Pim kinase vector in these tumor cells, this inhibition of phosphorylation was proportional to the level of Pim in these cells (FIG. 9). […] Inhibition of mTORC1 is known to stimulate the feedback activation of mTORC2 leading to AKT phosphorylation. […] The effect of these compounds on mTORC1 and 2 was still evident in PC3-LN4 cells that contained a knockout (KO) using CRISPR/CAS9 of either TSC2 or DEPDC5 (FIG. 12, lanes 4-9). TSC2 KO activated the Rheb GTPase while DEPDC5 KO activated the RAG GTPase both of which stimulate mTORC1 activity. Thus, GRG compounds were capable of inhibiting mTORC1 activity even when this kinase was highly activated.

Acetyl CoA carboxylase = Acetyl CoA carboxylase phosphorylation in LNCaP cells (Western blot); format: cell-based; details: LNCaP prostate cancer cell line
Description: LNCaP cells were treated in a 6 well plate with GRG-1-35 for the indicated times. Cells were scrapped and protein extracts subjected to SDS-PAGE and Western blotted with the antibodies shown.

mTORC = assay: Phosphorylation of mTORC substrates in PANC1 cells (Western blot); format: cell-based; details: overnight incubation, FIG. 19
Description: (§3) Immunoblotting: Western blots were performed as described previously. Briefly, protein lysates (30 μg) were subjected to SDS-PAGE and transferred to nitrocellulose membranes. After blocking with 5% milk in TBST buffer for 30 min at room temperature, the membranes were incubated overnight at 4° C. with the Indicated primary antibody in 3% BSA in TBST. Specific proteins were detected with the corresponding HRP conjugated secondary antibody using enhanced chemiluminescence (GE Lifesciences, Piscataway, NJ).
as §2

PC3-LN4 cells [2] = assay: Cell growth assay (IncuCyte) in PC3-LN4 prostate cancer cells; format: cell-based, human; details: for prostate cancer (PC3-LN4) growth, in combination with AKT/PI3K inhibitor: combination with AZD5363 or BKM120
Description: (§4) FIGS. 7A-7I show inhibition of VBT5445 (VBT) on Pim1 and EDC3 binding and phosphorylation. FIG. 7A: In vitro co-precipitation (Co-PPT) assay was performed with recombinant EDC3 and biotinylated Pim1 using Streptavidin beads with increasing concentrations of the Pim inhibitor VBT5445 (VBT). FIG. 7B: Kinase assays were performed with recombinant EDC3 and Pim1 with increasing concentrations of VBT. FIG. 7C: Cell lysates from PC3-LN4 cells cultured with DMSO, 10 μM VBT, 3 μM AZD5363 (AKTi) and the combination for 6 hrs were subjected to western blotting (WB). […] WBs were performed using the indicated antibodies. FIG. 7E: PC3-LN4 cells were seeded into 48 well plate and incubated with either DMSO, VBT, AZD5363 or the combination, for 4.5 days. A real-time imaging system (IncuCyte™) was used to measure cell proliferation using a non-label cell monolayer confluence approach. FIG. 7F-7H: GFP image in PC3 LN4 GFP EDC3 expressing cells treated with PIMi: VBT (5 μM) and VBT (5 μM)+AZD5363 (3 μM) for 6 hrs.
as §1

PC3-LN4 cells [3] = assay: Western blotting of PC3-LN4 cell lysates; format: cell-based, human
Description: as §4, with “FIG.” for “FIGS. 7A-7I show inhibition of VBT5445 (VBT) on Pim1 and EDC3 binding and phosphorylation. FIG.”
Extracts were subjected to Western blotting with the indicated antibodies.
as §3

[4] = Tolerability by gavage in mice; format: in vivo; details: 30 mg/kg by gavage in combination with AZD5363 40 mg/kg
Excerpt: Maximum Tolerated Dose and Side Effect Profile. […] To obtain the maximum tolerated dose (MTD), the dose will be increased by 50% over the previous one at each ensuing treatment consisting of 3 mice given daily for 5 days. Mice will be observed for fur ruffling and behavior changes. Blood will be drawn, and the WBC count and blood chemistry will be determined to evaluate bone marrow, liver, and kidney toxicity. Together with pharmacokinetic profiling, this analysis will help determine the best dose and frequency of administration for this molecule.

Pim1 and EDC3 binding = Pim1 and EDC3 binding (Homo sapiens, UniProt P11309); assay: In vitro co-precipitation / co-immunoprecipitation of EDC3 with Pim1; details: VBT-5445 at concentrations higher than 1 μM
Chain of Pim1 and EDC3 binding (P11309 whole entry): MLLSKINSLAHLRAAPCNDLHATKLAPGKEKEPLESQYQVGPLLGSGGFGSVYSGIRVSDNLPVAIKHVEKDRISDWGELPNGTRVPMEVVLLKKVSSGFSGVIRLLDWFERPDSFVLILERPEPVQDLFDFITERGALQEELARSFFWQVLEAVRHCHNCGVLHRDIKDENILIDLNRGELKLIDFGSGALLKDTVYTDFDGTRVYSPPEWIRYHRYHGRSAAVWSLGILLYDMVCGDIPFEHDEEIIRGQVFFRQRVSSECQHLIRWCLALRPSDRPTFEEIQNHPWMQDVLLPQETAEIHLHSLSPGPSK
Description: as §4

Pim1 [5] = molecular target: T1, Pim1 (Homo sapiens, UniProt P11309); assay: Kinase assay with purified Pim1 and EDC3 (EDC3 S161 phosphorylation); format: biochemical; details: concentration of 1 μM
T1 sequence (P11309 whole entry): as above
Description: as §4
Computer screening followed by surface plasmon resonance (SPR) yielded a lead compound VBT-5445 that can interact with the Pim-1 protein kinase. Enhancer of mRNA Decapping 3 (EDC3) is a substrate of the Pim kinase that regulates the decapping of messenger RNA, and its activity is modulated by Pim mediated phosphorylation. […]

PC3-LN4 cells [6] = assay: P-body (PB) number in PC3-LN4 GFP-EDC3 cells; format: cell-based, human; details: 6 h
Description: as §4
To measure PB numbers, PC3-LN4 PCa cells containing a CRISPR/Cas total knock-out of EDC3 were stably transduced with GFP-EDC3. When localized in PBs, GFP spots could be quantified. PBs were quantified at the University of Colorado Center for Drug Discovery using an Opera Phenix Plus high content screening system (PerkinElmer) Perkin Elmer G3 robotic system after drug treatment. Assays were carried out in quadruplicate and the mean number of PBs per cell and cell area calculated. An example of this assay is shown using […] buffered saline (HBSS) to induce PB formation.
Immunofluorescence: Immunofluorescence (IF) staining was performed on PC3-LN4 cells stably expressing EDC3-GFP. 1×10^4 cells were seeded in each chamber of an 8 well chamber slide (Nunc Lab-Tek II Chamber Slide System, Life Technologies) and cultured for 48 h. After attaching to the chamber slides cells were treated with DMSO, VB-5445 ([…]), AZD5363 (3 μM), or the combination for 6 h. Cells were then fixed with 4% paraformaldehyde in PBS for 15 min and subsequently permeabilized with 0.2% Triton X-100 in PBS. Cells were stained with diluted DAPI (1:4000) in 1% nor-mal goat serum in PBS. Cells were mounted with Prolong Gold Antifade mounting medium (Molecular Probes).

[7] = test system: T-cell acute lymphoblastic leukemia cell line DU528; assay: Cell viability (XTT) assay in T-ALL cells; format: cell-based; details: 72 h
Description: Cell viability (XTT) assay: T-ALL cells were seeded into 96 well plates at a density of 20,000 cells per well and treated with VBT-5445 for 72 h, using DMSO as control. Cell viability was measured using XTT cell proliferation assay (Trevigen Cat #4891-025-K) following the manufacturer's protocol. Briefly, XTT reagent was added to cell culture after the treatment and incubated for 4 h at 37° C. and 5% CO2. The absorbance of the colored formazan product was measured at 450 nm.

Pim1 [8] = molecular target: T1, Pim1; assay: Surface plasmon resonance (SPR) binding of VBT5445 to Pim1; details: 500 nM PIM447 vs DMSO
Description: as §4
A virtual screening effort was mounted to find chemicals that interact outside of ATP binding site of Pim screening over 100,000 compounds followed by testing the top 303 by Surface Plasmon Resonance (SPR). Synthesis of the most likely candidate was achieved by the Arizona Center for Drug Discovery at the University of Arizona. […]

## O=c1c(CNCc2cc(Cl)ccn2)cc2ccc(Cl)cc2n1CCOc1ccccc1 [GRG-1-35]
[1]
  growth inhibitory activity against PANC1 pancreatic cancer cells: most active
Acetyl CoA carboxylase
  phosphorylation of acetyl CoA carboxylase: Induction; also recorded: increased the phosphorylation of acetyl CoA carboxylase
mTORC
  block of phosphorylation of mTORC substrates (AKT, 4E-BP1, S6): block the phosphorylation of mTORC substrates

## O=c1c(CNCc2cccnc2)cc2ccc(Cl)cc2n1CCOc1ccccc1 [VBT5445]
PC3-LN4 cells [2]
  prostate cancer (PC3-LN4) growth, in combination with AKT/PI3K inhibitor: more active in inhibiting cancer growth
PC3-LN4 cells [2]; listed as VBT
  prostate cancer (PC3-LN4) growth, in combination with AKT/PI3K inhibitor: markedly inhibits the growth
PC3-LN4 cells [2]; compound alone
  growth in culture of PC3-LN4 cells: markedly inhibits the growth
PC3-LN4 cells [3]
  ITGB1 protein level, combination with AZD5363 (AKTi): reduced
  cellular level of Pim kinases: decreases the level of all Pim kinases
  cellular level of c-Myc protein: decrease
  mTORC1 activity: phosphorylation of the S6 protein: blocked mTORC1 activity
[4]
  weight loss or behavior changes: without any weight loss or behavior changes
Pim1 and EDC3 binding
  co-immunoprecipitation of EDC3 with Pim: blocked the ability of Pim1 to coimmunoprecipitate with EDC3
Pim1 [5]
  inhibition of EDC3 serine 161 phosphorylation by Pim1: inhibited EDC3 phosphorylation
PC3-LN4 cells [6]; combination with AZD5363 (3 μM)
  number of P-bodies, with AKT inhibitor AZD5363 added: further increased these numbers; also recorded: further increase P-body formation
PC3-LN4 cells [6]; compound alone
  number of P-bodies: increased PB numbers; also recorded: induces increased numbers of P-bodies
[7]
  growth of T-acute lymphoblastic leukemia cells: inhibited the growth
Pim1 [8]
  increase of binding to Pim1 when PIM447 was added and bound to the ATP site: 3 fold
